The values that follow come from patent US7705030B2, “Amino-5-(5-membered)hetero-arylimidazolone compounds and the use thereof for β-secretase modulation” (Wyeth LLC, priority 2005, dated 2010).

By IC50 is commonly meant the midpoint of a concentration-inhibition curve. A high value points to weaker potency in that assay.

In this assay the target is human BACE1 (Homo sapiens, UniProt P56817). Kind of assay: Fluorescent kinetic assay: Evaluation of BACE-1 Binding Affinity of Test Compounds. The format is biochemical. The following applies: 10 nM enzyme, 25 μM substrate WABC-6, 50 mM Na-Acetate pH 4.5, room temperature. The method, then: Evaluation of BACE-1 Binding Affinity of Test Compounds
Chain of human BACE1 (P56817 46-501): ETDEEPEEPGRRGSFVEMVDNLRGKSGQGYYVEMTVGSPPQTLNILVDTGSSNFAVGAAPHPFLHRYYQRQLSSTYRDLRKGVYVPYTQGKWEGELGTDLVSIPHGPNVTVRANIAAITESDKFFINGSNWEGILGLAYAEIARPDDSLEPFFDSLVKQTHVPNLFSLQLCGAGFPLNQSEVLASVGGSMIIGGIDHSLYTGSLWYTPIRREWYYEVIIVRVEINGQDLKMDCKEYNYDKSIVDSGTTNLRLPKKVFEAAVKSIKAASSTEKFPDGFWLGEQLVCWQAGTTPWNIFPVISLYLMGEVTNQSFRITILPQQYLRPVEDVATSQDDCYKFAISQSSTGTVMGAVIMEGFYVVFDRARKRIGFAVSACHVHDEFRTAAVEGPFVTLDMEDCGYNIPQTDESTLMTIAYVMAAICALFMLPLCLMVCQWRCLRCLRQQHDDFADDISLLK
Fluorescent Kinetic Assays
Final Assay Conditions: 10 nM human BACE1 (or 10 nM Murine BACE1, 1.5 nM human BACE2), 25 μM substrate (WABC-6, MW 1549.6, from AnaSpec), Buffer: 50 mM Na-Acetate, pH 4.5, 0.05% CHAPS, 25% PBS, room temperature. Na-Acetate was from Aldrich, Cat.# 24, 124-5, CHAPS was from Research Organics, Cat. # 1304C 1×, PBS was from Mediatech (Cellgro), Cat# 21-031-CV, peptide substrate Abz[…]pa was from AnaSpec, Peptide Name: WABC-6 Determination of stock substrate (Abz[…]pa) concentration: ˜25 mM stock solution is made in DMSO using the peptide weight and MW, and diluted to ˜25 μM (1:1000) in 1×PBS. Concentration is determined by absorbance at 354 nm using an extinction coefficient ε of 18172 M^−1 cm^−1, the concentration of stock substrate is corrected, and the substrate stock stored in small aliquots in −80° C. [Substrate Stock]=ABS^354 nm*10^6/18172 (in […]) The extinction coefficient ε^354 nm was adapted from TACE peptide substrate, which had the same quencher-fluorophore pair.
Determination of Stock Enzyme Concentration: the stock concentration of each enzyme is determined by absorbance at 280 nm using an ε of 64150 M^−1 cm^−1 for hBACE1 and MuBACE1, 62870 M^−1 cm^−1 for hBACE2 in 6 M Guanidinium Hydrochloride (from Research Organics, Cat. # 5134G-2), pH ˜6. The extinction coefficient ε^280 nm for each enzyme was calculated based on known amino acid composition and published extinction coefficients for Trp ([…]) and Tyr ([…]) residues (Anal. Biochem. 182, 319-326).
Dilution and mixing steps: total reaction volume: 100 μL
2× inhibitor dilutions in buffer A(66.7 mM Na-Acetate, pH 4.5, 0.0667% CHAPS) were prepared,
4× enzyme dilution in buffer A(66.7 mM Na-Acetate, pH 4.5, 0.0667% CHAPS) were prepared,
100 μM substrate dilution in 1×PBS was prepared, and
50 μL 2× Inhibitor, 25 μL 100 μM substrate are added to each well of 96-well plate (from DYNEX Technologies, VWR #: 11311-046), immediately followed by 25 μL 4× enzyme (added to the inhibitor and substrate mix), and the fluorescence readings are initiated.
Fluorescence Readings: Readings at λex 320 nm and λem 420 nm are taken every 40 sec for 30 min at room temperature and the linear slope for substrate cleavage rate (vi) determined.
Testing at least 10 different inhibitor concentrations is preferred.

For `COC(=O)c1cc([C@@]2(c3cccc(-c4cccnc4F)c3)N=C(N)N(C)C2=O)cn1CCF` [257 B], the half-maximal inhibitory concentration (IC50) lay within 110 to 1000 nM.
`CC(=O)c1cc([C@]2(c3ccccc3)N=C(N)N(C)C2=O)cn1C` [249 A] gave a half-maximal inhibitory concentration (IC50) of more than 1000 nM.
Then `CCC(=O)c1cc([C@@]2(c3cccc(-c4cccnc4F)c3)N=C(N)N(C)C2=O)cn1CCF` [256 B], with more than 1000 nM; and `CCC(=O)c1cc(C2(c3cccc(-c4cccnc4F)c3)N=C(N)N(C)C2=O)c[nH]1` (stereo not drawn) [Example 154], with 10 to 100 nM.
Then `CC(=O)c1cc([C@@]2(c3ccccc3)N=C(N)N(C)C2=O)cn1C` [249 B], with more than 1000 nM; and `CCn1cc([C@]2(c3cccc(-c4cccnc4F)c3)N=C(N)N(C)C2=O)cn1` [Example 44B, (5S)-2-Amino-5-(1-ethyl-1H-pyrazol-4-yl)-5-[3-(2-fluoropyridin-3-yl)phenyl]-3-methyl-3,5-dihydro-4H-imidazol-4-one], with 10 to 100 nM; and `CCn1cc(C2(c3cccc(-c4cncc(Cl)c4)c3)N=C(N)N(C)C2=O)cn1` (stereo not drawn) [Example 46, 2-Amino-5-[3-(5-chloropyridin-3-yl)phenyl]-5-(1-ethyl-1H-pyrazol-4-yl)-3-methyl-3,5-dihydro-imidazol-4-one], with 10 to 100 nM.
Take `CCn1cc(C2(c3cccc(-c4cccnc4F)c3)N=C(N)N(C)C2=O)cn1` (stereo not drawn) [Example 43, 2-Amino-5-(1-ethyl-1H-pyrazol-4-yl)-5-[3-(2-fluoro-pyridin-3-yl)-phenyl]-3-methyl-3,5-dihydro-imidazol-4-one]: the 50% inhibitory concentration (IC50) fell in the range of 10 to 100 nM.
Compound `CCCCc1ccc(C2(c3ccccc3)N=C(N)N(C)C2=O)s1` (stereo not drawn) [Example 109, 2-Amino-5-(5-butylthien-2-yl)-3-methyl-5-phenyl-3,5-dihydro-4H-imidazol-4-one] had a 50% inhibitory concentration (IC50) of more than 1000 nM.
For `CCn1cc(C2(c3cccc(-c4cncc(F)c4)c3)N=C(N)N(C)C2=O)cn1` (stereo not drawn) [Example 45, 2-Amino-5-(1-ethyl-1H-pyrazol-4-yl)-5-[3-(5-fluoro-pyridin-3-yl)-phenyl]-3-methyl-3,5-dihydro-imidazol-4-one], the IC50 was in the range of 10 to 100 nM.
Then `CCC(=O)c1cc([C@@]2(c3ccc(F)c(-c4cccnc4F)c3)N=C(N)N(C)C2=O)cn1CC` [Example 183B, (5R)-2-Amino-5-(1-ethyl-5-propionyl-1H-pyrrol-3-yl)-5-[4-fluoro-3-(2-fluoropyridin-3-yl)phenyl]-3-methyl-3,5-dihydro-4H-imidazol-4-one], with more than 1000 nM.
In the case of `COc1ncccc1-c1cc(C2(c3ccsc3)N=C(N)N(C)C2=O)ccc1F` (stereo not drawn) [Example 38], the IC50 lay within 110 to 1000 nM.
The compound `CCC(=O)c1cc([C@@]2(c3cccc(-c4cccnc4F)c3)N=C(N)N(C)C2=O)cs1` [244 B] gave an IC50 of 110 to 1000 nM.
Consider `CCC(=O)c1cc([C@@]2(c3cccc(-c4cccnc4F)c3)N=C(N)N(C)C2=O)cn1CC(F)F` [253 B], for which the IC50 is more than 1000 nM.
Then `CCC(=O)c1cc([C@]2(c3cccc(-c4cccnc4F)c3)N=C(N)N(C)C2=O)cn1CCCF` [255 A], with 10 to 100 nM; and `CCC(=O)c1cc([C@]2(c3cccc(-c4cccnc4F)c3)N=C(N)N(C)C2=O)cn1CC(F)F` [253 A], with 10 to 100 nM; and `CCC(=O)c1cc([C@@]2(c3cccc(-c4cccnc4F)c3)N=C(N)N(C)C2=O)cn1CC1CC1` [251 B], with more than 1000 nM.
For `CCC(=O)c1cc([C@@]2(c3cccc(-c4cccnc4F)c3)N=C(N)N(C)C2=O)cn1CCCC(F)(F)F` [252 B], the IC50 is more than 1000 nM.
Consider `CCC(=O)c1cc([C@@]2(c3cccc(-c4cccnc4F)c3)N=C(N)N(C)C2=O)cn1CCCCF` [250 B], for which the IC50 was more than 1000 nM.
In turn, `CCC(=O)c1cc(C2(c3cccc(-c4cccnc4F)c3)N=C(N)N(C)C2=O)cn1CCC(C)C` (stereo not drawn) [Example 153] showed an IC50 of 10 to 100 nM.
`CC(C)n1cc(C#Cc2ccc(F)c(Br)c2)cn1` [Example 94, 4-(3-bromo-4-fluorophenylethynyl)-1-isopropyl-1H-pyrazole] gave an IC50 of 10 to 100 nM.
`CCC(=O)c1cc([C@]2(c3cccc(-c4cccnc4F)c3)N=C(N)N(C)C2=O)cn1CC(F)(F)F` [Example 224A, (5S)-2-amino-5-[3-(2-fluoropyridin-3-yl)phenyl]-3-methyl-5-[5-propionyl-1-(2,2,2-trifluoroethyl)-1H-pyrrol-3-yl]-3,5-dihydro-4H-imidazol-4-one] displayed a half-maximal inhibitory concentration (IC50) of 10 to 100 nM.
To `CCC(=O)c1cc([C@]2(c3cccc(-c4cccnc4F)c3)N=C(N)N(C)C2=O)cn1CCCC(F)(F)F` [252 A] belongs 10 to 100 nM; to `CCC(=O)c1cc([C@]2(c3cccc(-c4cccnc4F)c3)N=C(N)N(C)C2=O)cs1` [244 A], 10 to 100 nM; to `CCC(=O)c1cc(C2(c3cccc(-c4cc(F)cnc4F)c3)N=C(N)N(C)C2=O)cn1CCF` (stereo not drawn) [Example 151, 2-Amino-5-[3-(2,5-difluoropyridin-3-yl)phenyl]-5-[1-(2-fluoro-ethyl)-5-propionyl-1H-pyrrol-3-yl)-3-methyl-3,5-dihydro-4H-imidazol-4-one], 10 to 100 nM.
As for `CCCn1cc([C@]2(c3cccc(-c4cccnc4F)c3)N=C(N)N(C)C2=O)cc1C(=O)CC` [254 A], the IC50 lay in the range of 10 to 100 nM.
`CCC(=O)c1cc(C2(c3cccc(Br)c3)N=C(N)N(C)C2=O)cn1CCF` (stereo not drawn) [Example 150, 2-Amino-5-[3-bromophenyl]-5-[1-(2-fluoroethyl)-5-propionyl-1H-pyrrol-3-yl)-3-methyl-3,5-dihydro-4H-imidazol-4-one]: the half-inhibitory concentration (IC50) is 110 to 1000 nM.
Consider `CN1C(=O)C(c2ccsc2)(c2ccc(F)c(-c3cccnc3)c2)N=C1N` (stereo not drawn) [Example 40], for which the IC50 was in the range of 10 to 100 nM.
To `CCC(=O)c1cc([C@]2(c3cccc(-c4cccnc4F)c3)N=C(N)N(C)C2=O)cn1CCF` [256 A] belongs 10 to 100 nM.
Turning to `CN1C(=O)C(c2ccsc2)(c2ccc(F)c(-c3cccnc3F)c2)N=C1N` (stereo not drawn) [Example 39], the 50% inhibitory concentration (IC50) lay in the range of 10 to 100 nM.
For `CCC(=O)c1cc([C@]2(c3cccc(-c4cccnc4F)c3)N=C(N)N(C)C2=O)cn1CCCCF` [250 A], the IC50 was in the range of 10 to 100 nM.
With `CCCn1cc([C@@]2(c3cccc(-c4cccnc4F)c3)N=C(N)N(C)C2=O)cc1C(=O)CC` [254 B], the half-inhibitory concentration (IC50) is more than 1000 nM.
`CCC(=O)c1cc([C@]2(c3cccc(-c4cccnc4F)c3)N=C(N)N(C)C2=O)cn1CC1CC1` [251 A]: the IC50 lay within 10 to 100 nM.
Consider `CCC(=O)c1cc([C@@]2(c3cccc(-c4cc(F)cnc4F)c3)N=C(N)N(C)C2=O)cn1CCF` [242 B], for which the concentration for half-maximal inhibition (IC50) was more than 1000 nM.
`COC(=O)c1cc([C@@]2(c3ccc(F)c(-c4cncnc4)c3)N=C(N)N(C)C2=O)cn1CC(F)(F)F` [258 B]: the IC50 was more than 1000 nM.
Consider `CCn1cc([C@]2(c3cccc(-c4cccnc4F)c3)N=C(N)N(C)C2=O)cc1C=O` [Example 247, 4-{(4S)-2-Amino-4-[3-(2-fluoropyridin-3-yl)phenyl]-1-methyl-5-oxo-4,5-dihydro-1H-imidazol-4-yl}-1-ethyl-1H-pyrrole-2-carbaldehyde], for which the concentration for half-maximal inhibition (IC50) fell in the range of 10 to 100 nM.
`CCC(=O)c1cc([C@@]2(c3cccc(-c4cccnc4F)c3)N=C(N)N(C)C2=O)cn1CCCF` [255 B] yielded a half-inhibitory concentration (IC50) of more than 1000 nM.
In the case of `CCC(=O)c1cc([C@]2(c3cccc(-c4cc(F)cnc4F)c3)N=C(N)N(C)C2=O)cn1CCF` [242 A], the IC50 lay in the range of 10 to 100 nM.
On to `CCn1cc([C@@]2(c3cccc(-c4cccnc4F)c3)N=C(N)N(C)C2=O)cc1C(=O)C1CC1` [243 B], for which the IC50 is more than 1000 nM.
The compound `COc1ccc(C2(c3cc(-c4ccc(F)cc4)cs3)N=C(N)N(C)C2=O)cc1C` (stereo not drawn) [Example 111, 2-Amino-5-[4-(4-fluorophenyl)thien-2-yl]-5-(4-methoxy-3-methylphenyl)-3-methyl-3,5-dihydro-4H-imidazol-4-one] yielded a 50% inhibitory concentration (IC50) of 110 to 1000 nM.
Then `CCn1cc(C2(c3cncnc3)N=C(N)N(C)C2=O)cn1` (stereo not drawn) [Example 42, 2-Amino-5-(1-ethyl-1H-pyrazol-4-yl)-3-methyl-5-(3-pyrimidin-5-yl)-3,5-dihydro-4H-imidazol-4-one], with 10 to 100 nM; and `CCC(=O)c1cc([C@@]2(c3cccc(-c4cccnc4F)c3)N=C(N)N(C)C2=O)cn1CC(F)(F)F` [Example 224B, (5R)-2-amino-5-[3-(2-fluoropyridin-3-yl)phenyl]-3-methyl-5-[5-propionyl-1-(2,2,2-trifluoroethyl)-1H-pyrrol-3-yl]-3,5-dihydro-4H-imidazol-4-one], with more than 1000 nM.
